Measurements taken from publication PMC5515969, “Effects of 31 FDA approved small-molecule kinase inhibitors on isolated rat liver mitochondria” (Archives of Toxicology, 2016).
Read-outs that look alike come from different tables or passages of the source. Marks after values point to notes of the source that are not given here.

What was measured:
[1] = system: isolated rat liver mitochondria; test: Mitochondrial inner membrane potential (MMP), Rhodamine 123; format: biochemical
Description: Fig. 3 KI effects on mitochondrial inner membrane potential (MMP). […] In a, c, data are means and standard derivations from three separate experiments. *p < 0.05 as compared to DMSO-treated samples at the end of experiments. In b, data are means of two independent experiments

[2] = cited from earlier work
[3] = system: isolated rat liver mitochondria; settings: positive control alamethicin treated samples
[4] = system: isolated rat liver mitochondria; test: Mitochondrial ROS production (CM-H2DCFDA)
RCC I = RCC I activity in submitochondrial particles; format: biochemical, rat; design: key to RCC I at 10XCmax / RCC I at 100XCmax / RCC I at 50XCmax / RCC I at 30XCmax / RCC I at 20XCmax: activity relative to DMSO-treated controls (control set as 1 = 100%)
Method in brief: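 Kinase inhibitors were preincubated 15 min with submitochondrial particles (1 mg/ml) before complex activities were measured. RCC I was the rotenone-sensitive portion (activity without minus with rotenone). RCC I/V was read at 340 nm and RCC II at 600 nm every 1 min for 6 min. RCC III and IV were read at 550 nm every 10 s for 2 min. Activities are normalized to DMSO controls set as 1.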

[5] = system: isolated rat liver mitochondria; test: Mitochondrial oxygen consumption (glutamate/malate or succinate driven, state 4 and state 3); format: biochemical; settings: for Glutamate/malate driven respiration State 3 / Glutamate/malate driven respiration State 4 / Succinate-driven respiration State 3 / Succinate-driven respiration State 4: oxygen consumption, DMSO-treated = 1; for State 3 respiration driven by succinate at 10XCmax: key: 0 indicates that the drug had no effects (negative); for State 3 respiration driven by succinate at 1XCmax: key: 0 indicates that the drug had no effects (negative)
Method in brief: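 Oxygen uptake on glutamate/malate or on succinate defined state 4; ADP added 3 min later gave state 3. Mitochondria isolated from rat liver by differential centrifugation, adjusted to 1 mg/ml and pretreated 5 min with inhibitor (0.1% DMSO final). Values relative to DMSO control, set to 1.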

RCC III = RCC III activity in submitochondrial particles; format: biochemical, rat; settings: 10-fold Cmax; 15 min; DMSO-treated = 100
Method in brief: (§1)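 Absorbance kinetics: A340 (RCC I, V) and A600 (RCC II) read each minute over 6 min, A550 (RCC III, IV) every 10 s over 2 min; RCC I taken as […]. Particles (1 mg/ml) pretreated 15 min with compound; DMSO-treated activity = 1.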

RCC II = biological target: T1, RCC II (Rattus norvegicus, UniProt P21913+Q641Z9+Q6PCT8+Q920L2); test: RCC II activity in submitochondrial particles; format: biochemical; design: key: activity relative to DMSO-treated controls (control set as 1 = 100%); settings: relative to DMSO treated samples
T1 construct: Submitochondrial particles were prepared by subjecting the intact mitochondria to three successive freeze–thaw cycles; from tissue; host or cells: rat liver mitochondria, used as submitochondrial particles
T1 sequence (Q920L2 35-656): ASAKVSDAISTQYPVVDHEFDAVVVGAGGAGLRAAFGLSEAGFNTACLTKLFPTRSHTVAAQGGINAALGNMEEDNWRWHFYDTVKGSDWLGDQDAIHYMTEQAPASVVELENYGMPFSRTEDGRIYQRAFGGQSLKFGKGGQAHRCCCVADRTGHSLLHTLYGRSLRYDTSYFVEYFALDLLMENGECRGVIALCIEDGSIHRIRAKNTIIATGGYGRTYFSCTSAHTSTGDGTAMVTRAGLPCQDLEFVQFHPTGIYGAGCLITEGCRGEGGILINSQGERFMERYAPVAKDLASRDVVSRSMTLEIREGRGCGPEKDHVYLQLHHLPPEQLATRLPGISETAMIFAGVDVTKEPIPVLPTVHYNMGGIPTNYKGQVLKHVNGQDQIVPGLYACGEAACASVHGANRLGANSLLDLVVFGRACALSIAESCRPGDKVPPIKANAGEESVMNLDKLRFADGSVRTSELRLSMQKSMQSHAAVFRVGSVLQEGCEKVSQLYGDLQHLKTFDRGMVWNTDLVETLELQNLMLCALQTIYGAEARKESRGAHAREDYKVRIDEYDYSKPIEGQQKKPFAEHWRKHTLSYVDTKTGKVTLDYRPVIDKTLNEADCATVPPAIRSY
T1 sequence (P21913 31-282): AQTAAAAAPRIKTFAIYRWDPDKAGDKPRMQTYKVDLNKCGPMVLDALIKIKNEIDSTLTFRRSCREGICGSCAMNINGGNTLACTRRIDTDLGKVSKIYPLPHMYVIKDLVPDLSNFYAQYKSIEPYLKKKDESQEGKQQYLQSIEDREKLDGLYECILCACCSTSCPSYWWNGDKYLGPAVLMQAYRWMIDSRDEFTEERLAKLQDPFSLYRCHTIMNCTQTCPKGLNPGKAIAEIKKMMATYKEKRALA
T1 sequence (Q641Z9 1-169): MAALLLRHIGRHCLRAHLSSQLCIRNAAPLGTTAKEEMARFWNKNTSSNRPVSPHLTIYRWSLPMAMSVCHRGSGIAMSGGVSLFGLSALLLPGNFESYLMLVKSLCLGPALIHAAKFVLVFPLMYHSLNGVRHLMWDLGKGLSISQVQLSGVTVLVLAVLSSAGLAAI
T1 sequence (Q6PCT8 57-159): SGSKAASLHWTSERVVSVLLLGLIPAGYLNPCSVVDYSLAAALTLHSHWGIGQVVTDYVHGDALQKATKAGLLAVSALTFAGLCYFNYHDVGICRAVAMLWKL
Method in brief: as §1

RCC V = RCC V activity in submitochondrial particles; format: biochemical, rat; for RCC V at 5XCmax: key: 0 indicates that the drug had no effects (negative)
Method in brief: as §1

[6] = 1XCmax, DMSO treated samples set as 1
[7] = 2.5XCmax, DMSO treated samples set as 1
[8] = 5XCmax, DMSO treated samples set as 1
[9] = 10XCmax, DMSO treated samples set as 1
[10] = 10-fold Cmax, 15 min, DMSO-treated = 100

With CNC(=O)c1cc(Oc2ccc(NC(=O)Nc3ccc(Cl)c(C(F)(F)F)c3)c(F)c2)ccn1 [Regorafenib] the “lowest concentration decreasing MMP” value [1] was “onefold”, the “MMP measured by Rhodamine 123 at 1XCmax” value ([1]; 1XCmax, difference in signal between KI and DMSO treated samples at the end of experiments) was 4244±687* and the “MMP measured by Rhodamine 123 at 2.5XCmax” value ([1]; 2.5XCmax, difference in signal between KI and DMSO treated samples at the end of experiments) was 4112±722*. The “MMP measured by Rhodamine 123 at 5XCmax” value ([1]; 5XCmax, difference in signal between KI and DMSO treated samples at the end of experiments) was 3961±724*, the “MMP measured by Rhodamine 123 at 10XCmax” value ([1]; 10XCmax, difference in signal between KI and DMSO treated samples at the end of experiments) was 3711±588* and the “effect on MMP” value ([1]; up to 100-fold Cmax or highest testable concentration) was “decrease in MMP”. For the same compound, the Cmax ([2]; human therapeutic Cmax at FDA recommended dosages, ref product labeling and drug approval packages at the official FDA website) was 8.08 µM, the “Cmax” value ([2]; therapeutic maximal blood concentration, ref product labeling) was 3900 ng/mL and the “Cytochrome c release 1XCmax” value ([3]; 1XCmax) was 10.72±1.87 percentage of the positive control group. For the same compound, the “Cytochrome c release 2.5XCmax” value ([3]; 2.5XCmax) was 22.56±1.84 percentage of the positive control group, the “Cytochrome c release 5XCmax” value ([3]; 5XCmax) was 10.26±0.36 percentage of the positive control group and the “Cytochrome c release 10XCmax” value ([3]; 10XCmax) was 7.42±0.36 percentage of the positive control group. The “ROS measured by CM-H2DCFDA at 1XCmax” value [4, 6] was 0, the “ROS measured by CM-H2DCFDA at 2.5XCmax” value [4, 7] was 0 and the “ROS measured by CM-H2DCFDA at 5XCmax” value [4, 8] was 0. The “ROS measured by CM-H2DCFDA at 10XCmax” value [4, 9] was 0, the “effect on ROS production” value ([4]; highest tested concentrations) was “neither of them affected ROS production” and the “RCC activity I” value (RCC I; [10]) was 99.37 ± 3.35 % of control. The “RCC I at 10XCmax” value (RCC I; 10XCmax, relative to DMSO treated samples) was 0, the “Glutamate/malate driven respiration State 3” value ([5]; 1-fold Cmax) was 2.33 ± 0.06 and the “Glutamate/malate driven respiration State 4” value ([5]; 1-fold Cmax) was 7.45 ± 0.17. The “Succinate-driven respiration State 3” value ([5]; 1-fold Cmax) was 1.05 ± 0.07, the “Succinate-driven respiration State 4” value ([5]; 1-fold Cmax) was 2.95 ± 0.08 and the “State 3 respiration driven by glutamate/malate at 1XCmax” value [5, 6] was 2.33±0.06. The “State 3 respiration driven by succinate at 1XCmax” value [5, 6] was 0, the “State 4 respiration driven by glutamate/malate at 1XCmax” value [5, 6] was 7.45±0.17 and the “State 4 respiration driven by succinate at 1XCmax” value [5, 6] was 2.95±0.08. The “Glutamate/malate driven respiration State 3” value ([5]; 2.5-fold Cmax) was 2.51 ± 0.04, the “Glutamate/malate driven respiration State 4” value ([5]; 2.5-fold Cmax) was 5.51 ± 0.35 and the “Succinate-driven respiration State 3” value ([5]; 2.5-fold Cmax) was 0.84 ± 0.04. For the same compound, the “Succinate-driven respiration State 4” value ([5]; 2.5-fold Cmax) was 3.59 ± 0.14, the “State 3 respiration driven by glutamate/malate at 2.5XCmax” value [5, 7] was 2.51±0.04 and the “State 3 respiration driven by succinate at 2.5XCmax” value [5, 7] was 0. For the same compound, the “State 4 respiration driven by glutamate/malate at 2.5XCmax” value [5, 7] was 5.51±0.35, the “State 4 respiration driven by succinate at 2.5XCmax” value [5, 7] was 3.59±0.14 and the “Glutamate/malate driven respiration State 3” value ([5]; 5-fold Cmax) was 1.33 ± 0.04. For the same compound, the “Glutamate/malate driven respiration State 4” value ([5]; 5-fold Cmax) was 3.82 ± 0.72, the “Succinate-driven respiration State 3” value ([5]; 5-fold Cmax) was 0.83 ± 0.03 and the “Succinate-driven respiration State 4” value ([5]; 5-fold Cmax) was 1.69 ± 0.09. For the same compound, the “State 3 respiration driven by glutamate/malate at 5XCmax” value [5, 8] was 1.33±0.04, the “State 3 respiration driven by succinate at 5XCmax” value [5, 8] was 0 and the “State 4 respiration driven by glutamate/malate at 5XCmax” value [5, 8] was 3.82±0.72. The “State 4 respiration driven by succinate at 5XCmax” value [5, 8] was 1.69±0.09, the “Glutamate/malate driven respiration State 3” value ([5]; 10-fold Cmax) was 1.36 ± 0.03 and the “Glutamate/malate driven respiration State 4” value ([5]; 10-fold Cmax) was 3.84 ± 0.34. The “Succinate-driven respiration State 3” value ([5]; 10-fold Cmax) was 0.82 ± 0.19, the “Succinate-driven respiration State 4” value ([5]; 10-fold Cmax) was 1.78 ± 0.19 and the “State 3 respiration driven by glutamate/malate at 10XCmax” value [5, 9] was 1.36±0.03. For the same compound, the “State 3 respiration driven by succinate at 10XCmax” value [5, 9] was 0, the “State 4 respiration driven by glutamate/malate at 10XCmax” value [5, 9] was 3.84±0.34 and the “State 4 respiration driven by succinate at 10XCmax” value [5, 9] was 1.78±0.19. For the same compound, the “effect on state 4 respiration” value ([5]; highest tested concentrations) was “significant increases”, the “lowest concentration significantly affecting mitochondrial oxygen consumption” value ([5]; tested at 1 to 100-fold Cmax) was “equal to Cmax” and the “RCC activity III” value (RCC III) was 90.31 ± 13.61 % of control. The “RCC II at 1.0XCmax” value (RCC II; 1.0XCmax) was 0, the “RCC II at 2.5XCmax” value (RCC II; 2.5XCmax) was 0 and the “RCC II at 5XCmax” value (RCC II; 5XCmax) was 0. The “RCC II at 10XCmax” value (RCC II; 10XCmax) was 83.50±2.91, the “RCC V at 5XCmax” value (RCC V; 5XCmax, relative to DMSO treated samples) was 0 and the “RCC activity V” value (RCC V; [10]) was 90.36 ± 13.39 % of control.
